For 8 compounds, EC50 results are on record in patent publication US8574563B2 (Bristol-Myers Squibb Company, priority 2006, dated 2013).

The EC50 is the concentration needed to bring the measured effect to its halfway point.

In the test the test system is HCV 1b-377-neo replicon cells. The experiment in a line: HCV replicon assay, HCV 1b-377-neo replicon cells (1b FRET). It counts as cell-based, Hepatitis C virus genotype 1b. The conditions noted are these: Hepatitis C virus, HCV 1b-377-neo replicon cells; HCV 1b genotype; read-out: EC50 range against HCV 1b (Table 2, Range). The gist of the method: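 Compounds were tested in genotype 1b subgenomic replicon cells carrying a neomycin marker, alongside a matched replicon line with an NS5A Y2065H substitution that confers resistance to a reference NS5A inhibitor.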
As for `CN(C)Cc1ccccc1CC(=O)N1CCC[C@H]1c1ncc(-c2ccc(-c3ccc(-c4cnc([C@@H]5CCCN5C(=O)[C@@H](c5ccccc5)N5CCCCC5)[nH]4)cc3)cc2)[nH]1` [Example 107-23, N,N-dimethyl-1-(2-(2-oxo-2-((2S)-2-(5-(4′-(2-((2S)-1-((2R)-2-phenyl-2-(1-piperidinyl)acetyl)-2-pyrrolidinyl)-1H-imidazol-5-yl)-4-biphenylyl)-1H-imidazol-2-yl)-1-pyrrolidinyl)ethyl)phenyl) methanamine], the EC50 lay in the range of 0.001 to 0.999 nM.
Regarding `Cc1cc(CC(=O)N2CCC[C@H]2c2ncc(-c3ccc(-c4ccc(-c5cnc([C@@H]6CCCN6C(=O)[C@@H](c6ccccc6)N6CCCCC6)[nH]5)cc4)cc3)[nH]2)on1` [Example 107-24, 1-((1R)-2-((2S)-2-(5-(4′-(2-((2S)-1-((3-methyl-5-isoxazolyl)acetyl)-2-pyrrolidinyl)-1H-imidazol-5-yl)-4-biphenylyl)-1H-imidazol-2-yl)-1-pyrrolidinyl)-2-oxo-1-phenylethyl) piperidine], the EC50 fell in the range of 0.001 to 0.999 nM.
Regarding `Cc1nc(CC(=O)N2CCC[C@H]2c2ncc(-c3ccc(-c4ccc(-c5cnc([C@@H]6CCCN6C(=O)[C@@H](c6ccccc6)N6CCCCC6)[nH]5)cc4)cc3)[nH]2)cs1` [Example 107-25, 1-((1R)-2-((2S)-2-(5-(4′-(2-((2S)-1-((2-methyl-1,3-thiazo1-4-yl)acetyl)-2-pyrrolidinyl)-1H-imidazol-5-yl)-4-biphenylyl)-1H-imidazol-2-yl)-1-pyrrolidinyl)-2-oxo-1-phenylethyl) piperidine], the half-maximal effective concentration (EC50) lay within 0.001 to 0.999 nM.
`O=C(Cc1ccccc1CN1CCOCC1)N1CCC[C@H]1c1ncc(-c2ccc(-c3ccc(-c4cnc([C@@H]5CCCN5C(=O)[C@@H](c5ccccc5)N5CCCCC5)[nH]4)cc3)cc2)[nH]1` [Example 107-26, 4-(2-(2-oxo-2-((2S)-2-(5-(4′-(2-((2S)-1-((2R)-2-phenyl-2-(1-piperidinyl)acetyl)-2-pyrrolidinyl)-1H-imidazol-5-yl)-4-biphenylyl)-1H-imidazol-2-yl)-1-pyrrolidinyl)ethyl)benzyl) morpholine]: the EC50 fell in the range of 0.001 to 0.999 nM.
In the case of `O=C(Cc1ccccc1CN1CCCC1)N1CCC[C@H]1c1ncc(-c2ccc(-c3ccc(-c4cnc([C@@H]5CCCN5C(=O)[C@@H](c5ccccc5)N5CCCCC5)[nH]4)cc3)cc2)[nH]1` [Example 107-27, 1-((1R)-2-oxo-1-phenyl-2-((2S)-2-(5-(4′-(2-((2S)-1-((2-(1-pyrrolidinylmethyl)phenyl)acetyl)-2-pyrrolidinyl)-1H-imidazol-5-yl)-4-biphenylyl)-1H-imidazol-2-yl)-1-pyrrolidinyl)ethyl)piperidine], the EC50 lay in the range of 0.001 to 0.999 nM.
With `O=C(Cc1ccccc1F)N1CCC[C@H]1c1ncc(-c2ccc(-c3ccc(-c4cnc([C@@H]5CCCN5C(=O)[C@@H](c5ccccc5)N5CCCCC5)[nH]4)cc3)cc2)[nH]1` [Example 107-28], the EC50 fell in the range of 0.001 to 0.999 nM.
Regarding `CC(=O)N1CCC[C@H]1c1ncc(-c2ccc(-c3ccc(-c4cnc([C@@H]5CCCN5C(=O)[C@@H](c5ccccc5)N5CCCCC5)[nH]4)cc3)cc2)[nH]1` [Example 107-29, 1-1((1R)-2-((2S)-2-(5-(4′-(2-((2S)-1-acetyl-2-pyrrolidinyl)-1H-imidazol-5-yl)-4-biphenylyl)-1H-imidazol-2-yl)-1-pyrrolidinyl)-2-oxo-1-phenylethyl) piperidine], the EC50 is 0.001 to 0.999 nM.
With `O=C(Cc1cccs1)N1CCC[C@H]1c1ncc(-c2ccc(-c3ccc(-c4cnc([C@@H]5CCCN5C(=O)[C@@H](c5ccccc5)N5CCCCC5)[nH]4)cc3)cc2)[nH]1` [Example 107-30, 1-((1R)-2-oxo-1-phenyl-2-((2S)-2-(5-(4′-(2-((2S)-1-(2-thienylacetyl)-2-pyrrolidinyl)-1H-imidazol-5-yl)-4-biphenylyl)-1H-imidazol-2-yl)-1-pyrrolidinyl)ethyl)piperidine], the EC50 was in the range of 0.001 to 0.999 nM.
